Columns and labels:
[1] = test system: human foreskin fibroblasts; experiment: Morphology and attachment of cultured fibroblasts on exposure to probe or ligand; format: cell-based
Procedure: Human foreskin fibroblasts were cultured to subconfluency on glass discs placed in culture dishes using Dulbecco's modified Eagle's medium (Gibco Laboratories, Grand Island, NY, U.S.A.). For labeling with glucose-GAP, glass discs with attached fibroblasts were removed from the culture dishes and washed twice with HBS. The cells were then exposed to fresh HBS (experimental) or HBS containing 400 mM glucose or 0.4 uM cytochalasin B (controls) for 5 min at room temperature. […] Cytochem. […] The discs were then placed in a drop of HBS and irradiated on ice as described above for erythrocytes. For labeling with ouabain-GAP cells grown in culture dishes were washed twice with HBS and exposed to HBS containing 400 mM glucose (experimental) or HBS containing 400 mM glucose plus 2 mM ouabain (control) for 15 min at 37° C. An equal volume of ouabain-GAP was then added followed by incubation for 30 min in the dark at room temperature. At this point, the presence of ouabain or ouabain-GAP caused the cells to detach from the substrate. The cells were recovered and unbound probe was removed by centrifugation in HBS. Cells were resuspended in fresh HBS and irradiated for 15 min in a water-jacketed cell at 4° C. using the light source described above.

ATPase = conditions: ouabain-ATPase complex; Erdmann and Hasse; read-out: dissociation constant; cited from earlier work
glucose transporter = biological target: T1, glucose transporter (Homo sapiens, UniProt P11166); conditions: glucose-glucose transporter complex; Sogin and Hinkle; read-out: dissociation constant; cited from earlier work
T1 construct: intact human erythrocytes labeled with the glucose transporter-specific probe (glucose-GAP); endogenous in cells; host or cells: human erythrocytes
T1 sequence (P11166 1-492): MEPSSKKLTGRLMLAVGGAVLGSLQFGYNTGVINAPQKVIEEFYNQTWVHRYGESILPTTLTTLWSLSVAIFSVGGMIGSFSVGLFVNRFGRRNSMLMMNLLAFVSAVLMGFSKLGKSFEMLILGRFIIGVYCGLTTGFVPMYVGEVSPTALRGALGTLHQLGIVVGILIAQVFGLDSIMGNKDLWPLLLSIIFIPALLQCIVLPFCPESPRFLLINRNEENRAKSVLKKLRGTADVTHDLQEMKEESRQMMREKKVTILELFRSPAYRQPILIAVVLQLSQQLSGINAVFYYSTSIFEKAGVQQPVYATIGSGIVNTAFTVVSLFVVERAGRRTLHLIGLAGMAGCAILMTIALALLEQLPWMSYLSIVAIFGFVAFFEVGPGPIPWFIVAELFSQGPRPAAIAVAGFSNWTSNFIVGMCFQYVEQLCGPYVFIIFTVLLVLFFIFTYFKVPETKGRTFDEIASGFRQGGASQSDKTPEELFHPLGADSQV

SMILES	morphological response of fibroblasts [1]	Kd (ATPase) [nM]	Kd (glucose transporter) [mM]
C[C@@H]1O[C@@H](O[C@H]2C[C@@H](O)[C@]3(CO)[C@H]4[C@H](O)C[C@]5(C)[C@@H](C6=CC(=O)OC6)CC[C@]5(O)[C@@H]4CC[C@]3(O)C2)[C@H](O)[C@H](O)[C@H]1O [ouabain]	caused the cells to lift from the substrate and take on a rounded morphology	2.8	–
OC[C@H]1OC(O)[C@H](O)[C@@H](O)[C@@H]1O (stereo partly drawn) [glucose]	–	–	50

Source: US4879220A (priority 1986, dated 1989)
